The values that follow come from patent publication US20230390273A1, “4-PHENYL-TETRAHYDROPYRIDINE DERIVATIVES FOR TREATING HEARING DISEASES” (CILCARE DEV, priority 2021, published 2023).

Where a name gives a salt, the structure may show the parent alone.

One test has as its system male Wistar rats. The test can be described thus: ABR/DPOAE assessment, noise-induced permanent hearing loss, immediate trans-tympanic treatment (Example 6). The settings on record: T0+28 days, versus traumatized animals untreated or vehicle; treatment 2 hours and 8 days post-noise. The format is in vivo. Here is the method: Fifty male Wistar rats were selected and distributed to treatment (“traumatized paliroden” group and “traumatized xaliproden” group) and control groups (“sham” group, “traumatized” group and “traumatized vehicle” group), each group comprising at least 9 rats at the end of the study. Randomization was performed using the ABR threshold in the left ear at 16 kHz as a criterium. The “sham” group consists in rats (n=11) that received neither noise exposure nor trans-tympanic injection. The “traumatized” group consists of rats (n=9) that received noise exposure only and no treatment. The “traumatized vehicle” group consists in rats (n=10) that received noise exposure and trans-tympanic injection in both ears of 30 μL of placebo (a composition comprising Poloxamer 407 (7,2% w/w), Poloxamer 188 (8% w/w) and Cremophor EL® (20% w/w) in phosphate buffer pH=7.4, the percentages being expressed relative to the total weight of the composition) between the eardrum and the round window by means of a needle which crosses the eardrum, 4 hours after the start of the noise exposure (i.e. injection of placebo at T0+4 hours, thus 2 hours after the end of the noise exposure) and 8 days post-noise exposure, under isoflurane anesthesia. […]

In test [1] the test system is synaptic ribbons in inner hair cells. The test can be described thus: Ribbon synapse immunostaining and counting in cochlea, delayed treatment (Example 7). The conditions noted are these: for Number of pre-synaptic and post-synaptic elements (CtBP2 and Homer) per IHC / Number of colocalized ribbons per IHC: 25 kHz, vs traumatized vehicle and NaCl groups, 2 days and 9 days post-noise; for Number of colocalized ribbons per IHC: statistically significant for Paliroden; for Synapse loss in the inner hair cells (FIG. 8): regions coding high frequency sounds, printed 2 hours and 8 days post-noise. The class given is in vivo, male Wistar rats. On the procedure:
At T+28 days, after DPOAE/ABR measures, 10 cochlea (all eight (8) left cochleae and two (2) right cochleae taken randomly) per group were rapidly sampled and immediately fixed by PFA perfusion (through the round and oval windows with PFA 4% after creating a small hole at the apex) in order to performed ribbon synapse immunostaining and analysis. Cochleae were fixed for 1 hour in a 4% PFA solution and decalcified in undiluted RDO (10 mL/cochlea for a minimum of 2 hours). The membranous and sensory spiral containing the organ of Corti are dissected out as a flat surface preparation under a dissecting microscope and immunolabelled with appropriate antibodies: • Vglut3 (Vglut3-Guinea Pig IgG; #135 204, Synaptic systems and Anti-Guinea Pig IgG (H+L), #A21450; Thermo Fisher Scientific 647 nm Far-Red) to stain inner hair cell bodies (vesicular glutamate transporter). • Homer (Homer-Rabbit IgG; #GTX103278; Genetex and Anti-Rabbit IgG (H+L) #A11008 Thermo Fisher Scientific 568 nm Red) to stain dendritic proteins of auditory nerve fibers connecting to IHC (post-synaptic). • CtBP2 (CtBP2-Mouse-IgG1; #612044; BD Transduction Laboratories and Anti-Mouse IgG1, #A21121, Thermo Fisher Scientific 488 Green) to stain the ribeye protein as pre-synaptic marker in IHC. • Phalloidin (Alexa Fluor™ Plus 405 Phalloidin; #A30104; Thermo Fisher Scientific 405 Blue).
Images were acquired on a confocal microscope and the slides were analyzed to i) evaluate by visual observation the presence of OHC and IHC (based on nuclei staining with CtBP2 and HC cell body staining with phalloidin) and ii) count the number of synaptic ribbons in selected inner hair cells in cochlea regions coding sound of selected frequency (16 kHz, 25 kHz and 32 kHz).
The number of pre- (CtBP2) and post-synaptic (Homer) labeled spots was counted using Imaris software in 3 dimensions for each image. Co-localization of pre- and post-synaptic elements was defined as a distance of maximum […] between CtBP2- and Homer-labeled spots, using an in-house Matlab program to calculate the distances between CtBP2 and Homer labels from the x, y, and z coordinates.

As for `FC(F)(F)c1cccc(C2=CCN(CCc3ccc(-c4ccccc4)cc3)CC2)c1` [paliroden (fumarate salt), 1-[2-(4-biphenylyl)ethyl]-4-(3-trifluoromethylphenyl)-1,2,3,6-tetrahydropyridine], the “Effect on ABR thresholds, DPOAE amplitudes, ABR Wave I amplitudes” value in the test on male Wistar rats is “did not show effect”. For the same molecule, in test [1], the “Number of pre-synaptic and post-synaptic elements (CtBP2 and Homer) per IHC” value is “increase”; the “Number of colocalized ribbons per IHC” value is reported as “increase”; the “Synapse loss in the inner hair cells (FIG. 8)” value is reported as “significantly repair synapse loss”.
Consider `FC(F)(F)c1cccc(C2=CCN(CCc3ccc4ccccc4c3)CC2)c1` [xaliproden (hydrochloride salt), 1-[2-(2-naphthyl)ethyl]-4-(3-trifluoromethylphenyl)-1,2,3,6-tetrahydropyridine], for which the “Effect on ABR thresholds, DPOAE amplitudes, ABR Wave I amplitudes” value in the test with male Wistar rats was “did not show effect”. Further, in test [1], the “Number of pre-synaptic and post-synaptic elements (CtBP2 and Homer) per IHC” value is on record as “increase”; the “Number of colocalized ribbons per IHC” value was “increase”; the “Synapse loss in the inner hair cells (FIG. 8)” value was “significantly repair synapse loss”.
